Key:
[1] = target: T1, SMYD3 (Homo sapiens (Human), UniProt Q9H7B4); test: SMYD3 biochemical assay (SPA, 3H-SAM methylation of MEKK2 protein substrate); settings: average of n = 1 to n = 50; read-out: SMYD3 Biochem IC50
Summary of the method: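 Tritium incorporation into GST-MEKK2 is counted by scintillation proximity after citric acid bead capture. Native human SMYD3 is preincubated with test compound for 30 min at room temperature at pH 8.0 (Tris-Cl, TCEP, BSG, Tween 20) before 3H-SAM and substrate are added; cold SAM at 100 uM final stops turnover.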

[2] = target: T1, SMYD3; test: SMYD3 cell assay (Trimethyl-MEKK2 In-Cell Western in 293T/17 cells); assay type: cell-based; settings: average of n = 1 to n = 50; read-out: SMYD3 Cell IC50
Summary of the method: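 In-Cell Western ratio of trimethyl-Lys260 MEKK2 to anti-flag signal; percent inhibition from DMSO and maximum-inhibition controls, IC50 by non-linear regression, triplicates.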

T1 sequence (Q9H7B4 whole entry): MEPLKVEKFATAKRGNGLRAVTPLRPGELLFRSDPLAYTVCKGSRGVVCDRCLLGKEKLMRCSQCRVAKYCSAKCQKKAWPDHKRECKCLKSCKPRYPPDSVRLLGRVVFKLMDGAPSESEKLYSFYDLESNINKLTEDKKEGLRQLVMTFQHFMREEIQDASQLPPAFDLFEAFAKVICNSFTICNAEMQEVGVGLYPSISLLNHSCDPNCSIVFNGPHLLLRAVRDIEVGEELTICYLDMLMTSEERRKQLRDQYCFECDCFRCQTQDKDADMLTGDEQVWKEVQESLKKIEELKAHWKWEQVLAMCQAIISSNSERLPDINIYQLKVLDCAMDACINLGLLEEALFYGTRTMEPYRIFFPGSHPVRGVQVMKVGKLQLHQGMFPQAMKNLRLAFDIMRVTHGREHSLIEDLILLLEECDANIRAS

Compound | IC50 [1] [nM] | IC50 [2] [nM]
CN(C1CCNCC1)S(=O)(=O)N1[C@@H]2CC[C@H]1C[C@H](NC(=O)c1cc(C3CC3)on1)C2 [compound 724, 5-cyclopropyl-N-((1R,3s,5S)-8-(N-methyl-N-(piperidin-4-yl)sulfamoyl)-8-azabicyclo[3.2.1]octan-3-yl)isoxazole-3-carboxamide] | 333 | 2440
O=C(N[C@H]1CCN(S(=O)(=O)C2CCCNC2)[C@@H](Cc2ccccc2)C1)c1cc(C2CC2)on1 (stereo partly drawn) [compound 725, N-((2S,4S)-2-benzyl-1-(piperidin-3-ylsulfonyl)piperidin-4-yl)-5-cyclopropylisoxazole-3-carboxamide] | 340 | 3070
O=C(N[C@H]1C[C@H]2CC[C@@H](C1)N2S(=O)(=O)CCN1CCC(OCc2ccccc2)C1)c1cc(C2CC2)on1 (stereo partly drawn) [compound 726, N-((1R,3r,5S)-8-((2-(3-(benzyloxy)pyrrolidin-1-yl)ethyl)sulfonyl)-8-azabicyclo[3.2.1]octan-3-yl)-5-cyclopropylisoxazole-3-carboxamide] | 360 | 2470
CNC/C=C/S(=O)(=O)N1CCC(NC(=O)c2cc(C3CC3)on2)CC1 [compound 727, (E)-5-cyclopropyl-N-(1-((3-(methylamino)prop-1-en-1-yl)sulfonyl)piperidin-4-yl)isoxazole-3-carboxamide] | 363 | 1390
CC(C)[C@@H]1CN(S(=O)(=O)N2CC[C@H](NC(=O)c3cc(C4CC4)on3)C[C@@H]2C)CCN1C [compound 728, 5-cyclopropyl-N-((2S,4S)-1-(((R)-3-isopropyl-4-methylpiperazin-1-yl)sulfonyl)-2-methylpiperidin-4-yl)isoxazole-3-carboxamide] | 380 | 1370
O=C(N[C@@H]1C[C@H]2CC[C@@H](C1)N2S(=O)(=O)C1CCCNC1)c1cc(C2CC2)on1 (stereo partly drawn) [compound 729, 5-cyclopropyl-N-((1R,3s,5S)-8-(piperidin-3-ylsulfonyl)-8-azabicyclo[3.2.1]octan-3-yl)isoxazole-3-carboxamide] | 411 | 2530
Nc1cc(S(=O)(=O)N2[C@@H]3CCC[C@H]2C[C@@H](NC(=O)c2cc(C4CC4)on2)C3)ccn1 [compound 730, N-((1R,3r,5S)-9-((2-aminopyridin-4-yl)sulfonyl)-9-azabicyclo[3.3.1]nonan-3-yl)-5-cyclopropylisoxazole-3-carboxamide] | 413 | 1320
C[C@H]1CN(S(=O)(=O)N2CCN(C)CC2)[C@@H](C)C[C@H]1NC(=O)c1cc(C2CC2)on1 [compound 731, 5-cyclopropyl-N-((2S,4R,5S)-2,5-dimethyl-1-((4-methylpiperazin-1-yl)sulfonyl)piperidin-4-yl)isoxazole-3-carboxamide] | 418 | 1330
C[C@H]1CN(S(=O)(=O)CCN2CCCC2)[C@@H](C)C[C@H]1NC(=O)c1cc(C2CC2)on1 [compound 732, 5-cyclopropyl-N-((2S,4R,5S)-2,5-dimethyl-1-((2-(pyrrolidin-1-yl)ethyl)sulfonyl)piperidin-4-yl)isoxazole-3-carboxamide] | 431 | 1460
O=C(NC1C[C@H]2CCC[C@H](C1)N2S(=O)(=O)c1ccc(Cl)cn1)c1cc(C2CC2)on1 (stereo partly drawn) [compound 733, N-((1R,5R)-9-((5-chloropyridin-2-yl)sulfonyl)-9-azabicyclo[3.3.1]nonan-3-yl)-5-cyclopropylisoxazole-3-carboxamide] | 442 | 1960
NCCCNc1ncccc1S(=O)(=O)N1[C@@H]2CCC[C@H]1C[C@@H](NC(=O)c1cc(C3CC3)on1)C2 [compound 734, N-((1R,3r,5S)-9-((2-((3-aminopropyl)amino)pyridin-3-yl)sulfonyl)-9-azabicyclo[3.3.1]nonan-3-yl)-5-cyclopropylisoxazole-3-carboxamide] | 442 | 4170
C[C@H]1CN(S(=O)(=O)N2CC[C@H](NC(=O)c3cc(C4CC4)on3)C[C@@H]2C)CCN1C [compound 735, 5-cyclopropyl-N-((2S,4S)-1-(((S)-3,4-dimethylpiperazin-1-yl)sulfonyl)-2-methylpiperidin-4-yl)isoxazole-3-carboxamide] | 446 | 1360
O=C(N[C@H]1C[C@H]2CC[C@@H](C1)N2S(=O)(=O)CCc1ccncc1)c1cc(C2CC2)on1 [compound 739, 5-cyclopropyl-N-((1R,3r,5S)-8-((2-(pyridin-4-yl)ethyl)sulfonyl)-8-azabicyclo[3.2.1]octan-3-yl)isoxazole-3-carboxamide] | 491 | 2400
CN(CCN1CCOCC1)CCS(=O)(=O)N1[C@@H]2CC[C@H]1C[C@@H](NC(=O)c1cc(C3CC3)on1)C2 [compound 742, 5-cyclopropyl-N-((1R,3r,5S)-8-((2-(methyl(2-morpholinoethyl)amino)ethyl)sulfonyl)-8-azabicyclo[3.2.1]octan-3-yl)isoxazole-3-carboxamide] | 513 | 899
O=C(N[C@H]1C[C@H]2CC[C@@H](C1)N2S(=O)(=O)CCNCCN1CCOCC1)c1cc(C2CC2)on1 [compound 743, 5-cyclopropyl-N-((1R,3r,5S)-8-((2-((2-morpholinoethyl)amino)ethyl)sulfonyl)-8-azabicyclo[3.2.1]octan-3-yl)isoxazole-3-carboxamide] | 514 | 1820
CN(CCc1ccccc1)CCS(=O)(=O)N1[C@@H]2CC[C@H]1C[C@@H](NC(=O)c1cc(C3CC3)on1)C2 [compound 748, 5-cyclopropyl-N-((1R,3r,5S)-8-((2-(methyl(phenethyl)amino)ethyl)sulfonyl)-8-azabicyclo[3.2.1]octan-3-yl)isoxazole-3-carboxamide] | 584 | 3180
O=C(N[C@H]1C[C@H]2CC[C@@H](C1)N2S(=O)(=O)N1CCNC(Cc2ccccc2)C1)c1cc(C2CC2)on1 (stereo partly drawn) [compound 749, N-((1R,3r,5S)-8-((3-benzylpiperazin-1-yl)sulfonyl)-8-azabicyclo[3.2.1]octan-3-yl)-5-cyclopropylisoxazole-3-carboxamide] | 590 | 3560

The next lines start with the values.

IC50 [1] [nM] | IC50 [2] [nM] | Compound
452 | 2030 | C[C@H]1C[C@@H](NC(=O)c2cc(C3CC3)on2)CCN1S(=O)(=O)N1CCNC(Cc2ccccc2)C1 (stereo partly drawn) [compound 736, N-((2S,4S)-1-((3-benzylpiperazin-1-yl)sulfonyl)-2-methylpiperidin-4-yl)-5-cyclopropylisoxazole-3-carboxamide]
469 | 6940 | C[C@H]1C[C@@H](NC(=O)c2cc(C3CC3)on2)CCN1S(=O)(=O)N1CCNCC1Cc1ccccc1 (stereo partly drawn) [compound 737, N-((2S,4S)-1-((2-benzylpiperazin-1-yl)sulfonyl)-2-methylpiperidin-4-yl)-5-cyclopropylisoxazole-3-carboxamide]
476 | 2820 | C[C@H]1CN(S(=O)(=O)CC2CCN(CCN3CCOCC3)CC2)CC[C@H]1NC(=O)c1cc(C2CC2)on1 [compound 738, 5-cyclopropyl-N-((3S,4R)-3-methyl-1-(((1-(2-morpholinoethyl)piperidin-4-yl)methyl)sulfonyl)piperidin-4-yl)isoxazole-3-carboxamide]
518 | 2350 | O=C(N[C@@H]1CCN(S(=O)(=O)CC2CCNCC2)[C@H](Cc2ccccc2)C1)c1cc(C2CC2)on1 [compound 744, N-((2R,4R)-2-benzyl-1-((piperidin-4-ylmethyl)sulfonyl)piperidin-4-yl)-5-cyclopropylisoxazole-3-carboxamide]
533 | 2640 | O=C(N[C@H]1CCN(S(=O)(=O)CC2CCCN2)[C@@H](Cc2ccccc2)C1)c1cc(C2CC2)on1 (stereo partly drawn) [compound 745, N-((2S,4S)-2-benzyl-1-((pyrrolidin-2-ylmethyl)sulfonyl)piperidin-4-yl)-5-cyclopropylisoxazole-3-carboxamide]
541 | 1660 | C[C@@H]1CN(S(=O)(=O)CCN2CCCC2)[C@H](C)C[C@@H]1NC(=O)c1cc(C2CC2)on1 [compound 746, 5-cyclopropyl-N-((2R,4S,5R)-2,5-dimethyl-1-((2-(pyrrolidin-1-yl)ethyl)sulfonyl)piperidin-4-yl)isoxazole-3-carboxamide]
583 | 2410 | C[C@@H]1C[C@H](NC(=O)c2cc(C3CC3)on2)CCN1C(=O)c1ccc2c(c1)ncn2C [compound 747, 5-cyclopropyl-N-((2R,4R)-2-methyl-1-(1-methyl-1H-benzo[d]imidazole-5-carbonyl)piperidin-4-yl)isoxazole-3-carboxamide]
625 | 3470 | COCCCN1CCC(CS(=O)(=O)N2CC[C@H](NC(=O)c3cc(C4CC4)on3)C[C@@H]2Cc2ccccc2)CC1 [compound 750, N-((2S,4S)-2-benzyl-1-(((1-(3-methoxypropyl)piperidin-4-yl)methyl)sulfonyl)piperidin-4-yl)-5-cyclopropylisoxazole-3-carboxamide]
633 | 2890 | C[C@H]1C[C@@H](NC(=O)c2cc(C3CC3)on2)CCN1S(=O)(=O)N1CCN[C@H](c2ccccc2)C1 [compound 751, 5-cyclopropyl-N-((2S,4S)-2-methyl-1-(((R)-3-phenylpiperazin-1-yl)sulfonyl)piperidin-4-yl)isoxazole-3-carboxamide]
667 | 2490 | O=C(N[C@@H]1CCN(S(=O)(=O)C2CCNC2)[C@H](Cc2ccccc2)C1)c1cc(C2CC2)on1 (stereo partly drawn) [compound 752, N-((2R,4R)-2-benzyl-1-(pyrrolidin-3-ylsulfonyl)piperidin-4-yl)-5-cyclopropylisoxazole-3-carboxamide]

— patent US10577363B2, “Substituted piperidine compounds” (EPIZYME, INC., priority 2014, dated 2020)
